According to patent publication US20250147039A1, “Compounds for complexation of rare earth elements and/or s-, p-, d- block metals, their coordination compounds, peptide conjugates, method of their preparation and use thereof” (USTAV ORGANICKE CHEMIE A BIOCHEMIE AV CR V.V.I., priority 2021, published 2025):

How the values were obtained:
Type in all cases: physicochemical
[1] = Dissociation of chelates in aq. 6.0M HCl at 80° C. (acid decomplexation kinetic inertness) (Chart 17)
[2] = Dissociation of chelates in aq. 1.0M HCl at 80° C. (acid decomplexation kinetic inertness) (Chart 18)
[3] = Dissociation of chelates in aq. 0.1M HCl at 80° C. (acid decomplexation kinetic inertness) (Chart 19)
[4] = Dissociation of chelates in aq. 0.1M HCl at RT (acid decomplexation kinetic inertness) (Chart 20)

Row | fraction of intact chelate ([1]; 1 month) | fraction of intact chelate ([1]; 1 week) | fraction of intact chelate ([1]; 1 hour) | fraction of intact chelate ([1]; 1 day) | fraction of intact chelate ([2]; 1 month) | fraction of intact chelate ([2]; 1 week) | fraction of intact chelate ([2]; 1 hour) | fraction of intact chelate ([2]; 1 day) | fraction of intact chelate ([3]; 1 month) | fraction of intact chelate ([3]; 1 week) | fraction of intact chelate ([3]; 1 hour) | fraction of intact chelate ([3]; 1 day) | fraction of intact chelate ([4]; 1 month) | fraction of intact chelate ([4]; 1 week) | fraction of intact chelate ([4]; 1 hour) | fraction of intact chelate ([4]; 1 day) | SMILES
1 | 0% | 0% | 0% | 0% | 0% | 0% | 0% | 0% | 0% | 0% | 46% | 0% | 5% | 54% | 100% | 93% | O=C([O-])CN1CCN2CCN(CC(=O)[O-])CCN(CC1)Cc1cccc(n1)-c1cnnn1Cc1cc(-c3ccccc3)cc(n1)C2.[Zn+2] [TD890]
2 | 0% | 0% | 0% | 0% | 0% | 0% | 0% | 0% | 0% | 0% | 0% | 0% | 0% | 6% | 98% | 58% | O=C1C[N@@]2CC[N@]3CC[N@@](CC[N@](CC2)Cc2cccc(n2)-c2cn(nn2)Cc2cc(-c4ccccc4)cc(n2)C3)CC(=O)[O][Gd][O]1 [TD875]
3 | 0% | 0% | 0% | 0% | 0% | 0% | 92% | 10% | 21% | 83% | 100% | 97% | 100% | 100% | 100% | 100% | O=C1C[N@@]2CC[N@]3CC[N@@](CC[N@](CC2)Cc2cccc(n2)-c2cnnn2Cc2cc(-c4ccccc4)cc(n2)C3)CC(=O)[O][Eu][O]1 [TD599]
4 | 0% | 17% | 99% | 81% | 96% | 99% | 100% | 100% | 100% | 100% | 100% | 100% | 100% | 100% | 100% | 100% | O=C1C[N@@]2CC[N@]3CC[N@@](CC[N@](CC2)Cc2cccc(n2)-c2cnnn2Cc2cc(-c4ccccc4)cc(n2)C3)CC(=O)[O][Ho][O]1 [TD648]
5 | 0% | 0% | 0% | 0% | 0% | 0% | 0% | 0% | 0% | 0% | 0% | 0% | 0% | 0% | 39% | 0% | O=C([O-])CN1CCN2CCN(CC(=O)[O-])CCN(CC1)Cc1cccc(n1)-c1cnnn1Cc1cc(-c3ccccc3)cc(n1)C2.[Ca+2] [TD863]
6 | 69% | 92% | 100% | 99% | 100% | 100% | 100% | 100% | 100% | 100% | 100% | 100% | 100% | 100% | 100% | 100% | O=C1C[N@@]2CC[N@]3CC[N@@](CC[N@](CC2)Cc2cccc(n2)-c2cnnn2Cc2cc(-c4ccccc4)cc(n2)C3)CC(=O)[O][Tm][O]1 [TD601]
7 | 0% | 0% | 0% | 0% | 0% | 0% | 0% | 0% | 0% | 0% | 0% | 0% | 0% | 0% | 6% | 0% | O=C([O-])CN1CCN2CCN(CC(=O)[O-])CCN(CC1)Cc1cccc(n1)-c1cnnn1Cc1cc(-c3ccccc3)cc(n1)C2.[Pb+2] [TD876]
8 | 90% | 98% | 100% | 100% | 100% | 100% | 100% | 100% | 100% | 100% | 100% | 100% | 100% | 100% | 100% | 100% | O=C1C[N@@]2CC[N@]3CC[N@@](CC[N@](CC2)Cc2cccc(n2)-c2cnnn2Cc2cc(-c4ccccc4)cc(n2)C3)CC(=O)[O][Yb][O]1 [TD602]
9 | 0% | 7% | 98% | 69% | 92% | 98% | 100% | 100% | 100% | 100% | 100% | 100% | 100% | 100% | 100% | 100% | O=C1C[N@@]2CC[N@]3CC[N@@](CC[N@](CC2)Cc2cccc(n2)-c2cnnn2Cc2cc(-c4ccccc4)cc(n2)C3)CC(=O)[O][Y][O]1 [TD649]
10 | 95% | 98% | 100% | 100% |  |  |  |  |  |  |  |  |  |  |  |  | O=C1CN2CCN3CCN(CCN(CC2)Cc2cccc(n2)-c2cnnn2Cc2cccc(n2)C3)CP(=O)(O)[O][Lu][O]1 [TD734]
